Source: PMC8945229, “Development and Biological Characterization of a Novel Selective TrkA Agonist with Neuroprotective Properties against Amyloid Toxicity” (Biomedicines, 2022)

Tests used:
Akt = Akt phosphorylation in PC12 cells (Western blot); assay type: cell-based; design: unit not given here; conditions: 500 nM, 30′
Description: For immunoprecipitation experiments PC12 or HEK293T, cells were used when at 70–80% confluent. Cells were starved of serum for 4 h and subsequently treated with 100 ng/mL NGF or 500 nM of compound ENT-A013 for 30′. Cells were then lysed in Pierce™ IP Lysis Buffer (87788, Thermo Fischer Scientific, Waltham, MA, USA) containing proteases (539138, Calbiochem, Darmstadt, Germany) and phosphatase inhibitors (524629, Calbiochem, Darmstadt, Germany). Lysates were then immunoprecipitated overnight at 4 °C with TrkA antibody (1:100, 06-574, Sigma-Aldrich, St. Louis, MO, USA) (Table S1) or p75^NTR antibody (1:100, ab6172, Abcam plc., Cambridge, UK) followed by 4 h incubation with protein G-plus agarose beads (sc-2002, Santa Cruz Biotechnology, Inc., Dallas, TX, USA). Beads were then collected, washed 3X with lysis buffer, resuspended in SDS loading buffer and subjected to Western blot against phosphorylated Tyrosine (1:1000, BAM1676, R&D Systems, Inc., Minneapolis, MN, USA) or Traf6 antibody (1:2000, ab33915, Abcam, plc., Cambridge, UK). […]

PC12 cells = test: CellTox assay, serum deprivation-induced cell death; assay type: cell-based
Description: CellTox assay (G8742, Promega Corporation, Maddison, WI, USA) was used to assess survival of PC12 cells under serum deprivation conditions. PC12 cells were plated in 96-well plates, starved of serum for 4 h and subsequently treated with NGF (100 ng/mL) or ENT-A013 (500 nM) in the presence or absence of TrkA inhibitor GW441756 (20 μM, G-190, Alomone labs, Jerusalem, Israel) for 24 h. CellTox assay reagents and Hoescht (1:10,000, H3570, Invitrogen, Waltham, MA, USA) were added to each well for 30′ and cells were then imaged with a Zeiss AXIO Vert A1 fluorescent microscope (Zeiss, Jena, Germany). CellTox positive cells were normalized to total number of cells for each image.

[1] = test system: HEK cells transfected with p75NTR; test: CellTox assay in serum-starved HEK cells transfected with p75NTR; assay type: cell-based; conditions: 500 nM, 24hrs
Description: (A) HEK cells transfected with p75NTR and Traf6 were treated with ENT-A013 (500nM) or NGF (100ng/ml) for 30’ and then were subjected to immunoprecipitation experiments against p75.
(C) HEK cells transfected with p75NTR were starved from serum and treated with ENT-A013 (500nM) or NGF (100ng/ml) for 24hrs and subsequently subjected to CellTox assay. […]
difference between ENT-A013 treated group and negative control (Serum Free).
(1 picture or pasted object on this page, not shown here)

[2] = test system: CYP1A2, CYP2A6, CYP2B6, CYP2C9, CYP2C19, CYP2D6 and CYP3A4; test: CYP450 catalytic and metabolic activity, seven isoforms; assay type: in vitro ADME, human; conditions: 1 μM
Description: Baculosomes® expressing CYP1A2, CYP2A6, CYP2B6, CYP2C9, CYP2C19, CYP2D6 and CYP3A4 human CYP450 isoenzymes were purchased from Thermo Fisher Scientific (Waltham, MA, USA). All reagents were handled and prepared according to the manufacturer’s protocol. ENT-A013 was tested at 1 μM. Enzymatic activity in the presence of ΕΝΤ-A013 was assessed based on the kinetic model for CYP1A2, CYP2A6, CYP2B6, CYP2C9, CYP2C19, CYP2D6 and CYP3A4 isoforms. Reactions took place in triplicates at 20 °C. Glucose-6-phosphate at 333 mM and glucose-6-phosphate-dehydrogenase at 30 U/mL in 100 mM potassium phosphate, pH 8.0 (regeneration system) converted NADP^+ (10 mM in 100 mM potassium phosphate, pH 8.0) into NADPH to initiate the CYP450 reaction. Upon the addition of the fluorescent substrate, immediately (<2 min), the fluorescence signal was monitored over time at suitable excitation and emission wavelengths by Lionheart FX (BioTek, Winooski, VT, USA) (Table S2). CYP450 inhibition (%) was determined based on the reaction rates (fluorescence intensity changes per unit time). A total of n = 60 measurements per minute were acquired for a total time of t = 60 min. % Inhibition= (1 − X/A) × 100%(1) where: X is the rate observed in the presence of test-compound; A is the rate observed in the presence of negative (solvent, DMSO) control.

CC12CCC(O)CC1=CCC1C2CCC2(C)C1CCC21CC1C=CBr [ENT-A013, (2′R,3S,17S)-2′-(2-Bromovinyl)-5-Androstene-17,1′-Cyclopropan-3-ol]
Akt phosphorylation (Akt): 3.8 ± 1.15
IC50 (PC12 cells; Rattus norvegicus, PC-12, serum deprivation, CellTox, read-out: IC50 (anti-apoptotic dose–response)): 167 nM
CellTox positive cells normalized to total number of cells (PC12 cells; serum deprivation, 24 h, 500 nM): 0.11 ± 0.01
cell death vs negative control (Serum Free) (in words) [1]: no significant
enzyme (catalytic) activity of the seven major CYP450s ([2]; relative fluorescence of product): did not decrease the enzyme (catalytic) activity
CYP450 (%) metabolic activity, residual % of time zero (in words) ([2]; t = 0 to t = 60 min): overall metabolically stable
